# Source: paper PMC8151276, “An Integrated Approach toward NanoBRET Tracers for Analysis of GPCR Ligand Engagement” (Molecules, 2021)
# Experiments:
# Assay type in all cases: binding
# ADORA2B = target: T1, ADORA2B (Homo sapiens, UniProt P29275); assay: NanoBRET screen HiBiT-ADORA2B in HEK293
# T1 construct: purchased Promega (in-house HiBiT-GPCR construct library, NanoBRET)
# T1 sequence (P29275 1-332): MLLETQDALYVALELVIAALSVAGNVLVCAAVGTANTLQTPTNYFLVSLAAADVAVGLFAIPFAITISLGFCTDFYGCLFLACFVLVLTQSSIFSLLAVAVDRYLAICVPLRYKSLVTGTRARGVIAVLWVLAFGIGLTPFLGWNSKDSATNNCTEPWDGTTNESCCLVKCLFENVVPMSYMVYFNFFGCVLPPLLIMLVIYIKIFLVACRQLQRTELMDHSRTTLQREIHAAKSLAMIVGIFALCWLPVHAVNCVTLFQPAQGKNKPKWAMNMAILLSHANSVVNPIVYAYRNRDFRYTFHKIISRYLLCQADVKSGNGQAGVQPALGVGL
# Procedure: (§1) Each tracer candidate was screened across the entire library of HiBiT-GPCR constructs using NanoBRET as the detection modality. As depicted in Figure 4A, the specificity of interactions was evaluated through decrease in BRET due to competitive displacement of a bound tracer by excess parental compound. Each tracer was analyzed for binding to each HiBiT-GPCR fusion in the absence and in the presence of competing parental compound. Briefly, HEK293 cells were transfected with HiBiT-GPCR constructs diluted into promoterless DNA to reduce expression and maximize translocation to the cell surface. Each tracer candidate was then screened at concentrations of 1 μM and 0.1 μM across cells expressing these fusions. Cells were treated for 1.5 h with tracer either alone or in the presence of 20 μM competing parental compound (i.e., control). BRET was measured upon addition of purified LgBiT and subsequent complementation with HiBiT genetically fused to a GPCR. The specificity of interactions was assessed through a decrease in BRET signal due to competitive displacement of the bound tracer. To further gauge the robustness of these interactions, the fold response over the control (i.e., BRETtracer/BRETcontrol) was calculated. We chose a 1.5-fold response, which translates to ≥7-fold signal over noise as the minimal threshold required to score an interaction as positive. […]. Below we highlight the screening results obtained for our exemplary fluorescent tracers based on Clozapine, Amitriptyline and AZD1283.
# (§2) HiBiT-GPCR DNA constructs were diluted in 10 mM Tris pH 8 to a final concentration of 0.01 μg/μL, arrayed in 96-well plates and stored at −20 °C. For transfection, HEK293 cells were suspended in Opti-MEM (without phenol red) supplemented with 2% fetal bovine serum (Seradigm) and 100 units/mL penicillin–streptomycin (Gibco) at a final concentration of 220,000 cells/mL and dispensed into white 96-well plates at 90 μL/well. Subsequent transfections and screens were carried using an Agilent Bravo Automated Liquid Handling Platform. First, the 96-well HiBiT DNA arrays were diluted 25-fold in Opti-MEM (without serum or phenol red) to a final concentration of 0.0004 μg/μL and 20 μL of the diluted DNAs were transferred into new 96-well plates. Next, promoterless carrier DNA (1 μg/μL) was diluted 25-fold (0.04 μg/μL) and then dispensed into the diluted arrays at 20 μL/well. Following brief mixing, Viafect transfection reagent (Promega) diluted 16-fold into Opti-MEM was dispensed into the plates at 40 μL/well. After mixing by pipetting, plates were incubated for 10 min on the pipetting station deck. The DNA-transfection reagent complexes were then added to plates containing cells. To facilitate the screen, 10 μL of DNA-transfection reagent complexes were added in duplicates to the top 4 and bottom 4 rows, resulting in two identical 48-well arrays per plate. Plates with transfected cells were incubated for 18–20 h at 37 °C/5% CO2. A screen of each tracer across the entire library using two different concentrations requires duplicate plates of transfected cells. Depending on the number of tracers being screened, transfections can be scaled up using the same ratios. The next day, for each tracer, four 20× screening solutions in tracer dilution buffer (Promega) were prepared: two duplicates at final concentration of 20 μM and two duplicates at a final concentration of 2 μM. A competing unmodified compound was added to one of each duplicate at a final concentration of 400 μM. The four resulting solutions were diluted 4-fold in Opti-MEM without serum or phenol red to generate 5× solutions (5 µM and 0.5 µM tracer +/− 100 μM competing compound). To screen the library, a BioTek MultiFlo FX liquid dispenser was used to dispense 22.5 µL of tracer solution to the top 4 rows and 22.5 µL tracer + competing compound solution to the 4 bottom rows. Plates were briefly mixed on an orbital shaker and incubated for 1.5 h at room temperature. […]
# MTNR1B = target: T2, MTNR1B (Homo sapiens, UniProt P49286); assay: NanoBRET screen HiBiT-MTNR1B in HEK293
# T2 construct: purchased Promega (in-house HiBiT-GPCR construct library, NanoBRET)
# T2 sequence (P49286 1-362): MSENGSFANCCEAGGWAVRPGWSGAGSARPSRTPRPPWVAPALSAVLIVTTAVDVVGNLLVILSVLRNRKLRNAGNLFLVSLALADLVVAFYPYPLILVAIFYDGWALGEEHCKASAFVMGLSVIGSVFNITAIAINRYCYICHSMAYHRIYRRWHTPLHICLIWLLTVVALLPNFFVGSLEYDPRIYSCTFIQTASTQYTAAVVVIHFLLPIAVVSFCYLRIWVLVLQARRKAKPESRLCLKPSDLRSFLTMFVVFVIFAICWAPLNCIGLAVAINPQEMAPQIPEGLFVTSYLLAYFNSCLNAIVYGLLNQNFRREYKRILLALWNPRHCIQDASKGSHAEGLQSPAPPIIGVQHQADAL
# Procedure: as §1, §2
# HCRTR2 = target: T3, HCRTR2 (Homo sapiens, UniProt O43614); assay: NanoBRET screen HiBiT-HCRTR2 in HEK293
# T3 construct: purchased Promega (in-house HiBiT-GPCR construct library, NanoBRET)
# T3 sequence (O43614 1-444): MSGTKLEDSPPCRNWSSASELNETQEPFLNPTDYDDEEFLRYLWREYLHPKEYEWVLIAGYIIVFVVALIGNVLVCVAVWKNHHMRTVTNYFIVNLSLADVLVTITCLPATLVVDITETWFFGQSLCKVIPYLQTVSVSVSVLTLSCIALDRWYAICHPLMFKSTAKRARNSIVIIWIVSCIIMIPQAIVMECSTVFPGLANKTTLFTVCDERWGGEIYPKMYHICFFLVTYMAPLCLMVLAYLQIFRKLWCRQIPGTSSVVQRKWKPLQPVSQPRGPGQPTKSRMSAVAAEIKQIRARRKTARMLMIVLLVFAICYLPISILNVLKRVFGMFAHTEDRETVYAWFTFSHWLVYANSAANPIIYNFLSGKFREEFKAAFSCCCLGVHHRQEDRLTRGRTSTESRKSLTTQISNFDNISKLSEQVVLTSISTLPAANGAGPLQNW
# Procedure: as §1, §2
# [1] = tracer at 0.1μM, listed as amitriptyline-b-2-NB590
smiles,measurement,setting,value
CCOC(=O)c1cc(C#N)c(N2CCC(C(=O)NS(=O)(=O)Cc3ccccc3/C=C/C(=O)NCCNC(=O)CCc3ccc4n3[B-](F)(F)[N+]3=C(c5ccc[nH]5)C=CC3=C4)CC2)nc1C [AZD1283-1-NB590],NanoBRET Fold Response,"ADORA2B; ADORA2B, 0.1μM",0.94
same,NanoBRET Fold Response,"ADORA2B; ADORA2B, 1μM",0.93
same,NanoBRET Fold Response,"MTNR1B; MTNR1B, 0.1μM",0.97
same,NanoBRET Fold Response,"MTNR1B; MTNR1B, 1μM",0.53
same,NanoBRET Fold Response,"HCRTR2; HCRTR2, 0.1μM",1.01
same,NanoBRET Fold Response,"HCRTR2; HCRTR2, 1μM",1.01
N#CN=C(NCCCOc1cccc(CN2CCCCC2)c1)NCCNC(=O)CCOCCOCCOCCOCCNC(=O)CCc1ccc2n1[B-](F)(F)[N+]1=C(c3ccc[nH]3)C=CC1=C2 [Aminopotentidine-2-NB590],NanoBRET Fold Response,"ADORA2B; ADORA2B, tracer 0.1μM",1.37
same,NanoBRET Fold Response,"ADORA2B; ADORA2B, tracer 1μM",1.06
same,NanoBRET Fold Response,"MTNR1B; MTNR1B, tracer 0.1μM",0.99
same,NanoBRET Fold Response,"MTNR1B; MTNR1B, tracer 1μM",0.99
same,NanoBRET Fold Response,"HCRTR2; HCRTR2, tracer 0.1μM",1.01
same,NanoBRET Fold Response,"HCRTR2; HCRTR2, tracer 1μM",0.97
CN(C)CCC=C1c2ccccc2CCc2ccc(C(=O)NCCNC(=O)CCOCCOCCOCCOCCNC(=O)CCc3ccc4n3[B-](F)(F)[N+]3=C(c5ccc[nH]5)C=CC3=C4)cc21 [Amitriptyline-a-2-NB590],NanoBRET Fold Response,ADORA2B; tracer at 0.1μM,1.10
same,NanoBRET Fold Response,ADORA2B; tracer at 1μM,0.93
same,NanoBRET Fold Response,HCRTR2; tracer at 0.1μM,1.05
same,NanoBRET Fold Response,HCRTR2; tracer at 1μM,1.08
CN(C)CCC=C1c2ccccc2CCc2ccc(C(=O)NCCNC(=O)CCOCCOCCOCCOCCNC(=O)CCc3ccc4n3[B-](F)(F)[N+]3=C(c5ccc[nH]5)C=CC3=C4)cc21 [Amitriptyline-b-2-NB590],NanoBRET Fold Response,ADORA2B; [1],1.40
same,NanoBRET Fold Response,"MTNR1B; MTNR1B, tracer 0.1μM",1.02
same,NanoBRET Fold Response,"MTNR1B; MTNR1B, tracer 1μM",1.04
same,NanoBRET Fold Response,HCRTR2; [1],1.00
same,NanoBRET Fold Response,"HCRTR2; tracer at 1μM, listed as amitriptyline-b-2-NB590",0.98
COc1ccc2c(n1)c(CCNC(C)=O)cn2CCNC(=O)CCc1ccc2n1[B-](F)(F)[N+]1=C(c3ccc[nH]3)C=CC1=C2 [Azamelatonin-1-NB590],NanoBRET Fold Response,ADORA2B; 0.1μM tracer,0.49
same,NanoBRET Fold Response,ADORA2B; 1μM tracer,0.60
same,NanoBRET Fold Response,MTNR1B; 0.1μM tracer,1.07
same,NanoBRET Fold Response,MTNR1B; 1μM tracer,1.12
same,NanoBRET Fold Response,HCRTR2; 0.1μM tracer,1.04
same,NanoBRET Fold Response,HCRTR2; 1μM tracer,1.30
COc1ccc2[nH]c(-c3ccc(CNC(=O)CCOCCOCCOCCOCCNC(=O)CCc4ccc5n4[B-](F)(F)[N+]4=C(c6ccc[nH]6)C=CC4=C5)cc3)c(CCNC(C)=O)c2n1 [AzomelatoninICO9-2-NB590],NanoBRET Fold Response,ADORA2B; 0.1μM tracer,0.82
same,NanoBRET Fold Response,ADORA2B; 1μM tracer,1.21
same,NanoBRET Fold Response,MTNR1B; 0.1μM tracer,2.05
same,NanoBRET Fold Response,MTNR1B; 1μM tracer,2.32
same,NanoBRET Fold Response,HCRTR2; 0.1μM tracer,1.02
same,NanoBRET Fold Response,HCRTR2; 1μM tracer,1.08
